Laboratory results as given in US7704995B2 (Exelixis, Inc., priority 2003, dated 2010).

Target: T1, Chk1 (Homo sapiens, UniProt O14757)
T1 construct: purchased Upstate Biotechnology
T1 sequence (O14757 1-476): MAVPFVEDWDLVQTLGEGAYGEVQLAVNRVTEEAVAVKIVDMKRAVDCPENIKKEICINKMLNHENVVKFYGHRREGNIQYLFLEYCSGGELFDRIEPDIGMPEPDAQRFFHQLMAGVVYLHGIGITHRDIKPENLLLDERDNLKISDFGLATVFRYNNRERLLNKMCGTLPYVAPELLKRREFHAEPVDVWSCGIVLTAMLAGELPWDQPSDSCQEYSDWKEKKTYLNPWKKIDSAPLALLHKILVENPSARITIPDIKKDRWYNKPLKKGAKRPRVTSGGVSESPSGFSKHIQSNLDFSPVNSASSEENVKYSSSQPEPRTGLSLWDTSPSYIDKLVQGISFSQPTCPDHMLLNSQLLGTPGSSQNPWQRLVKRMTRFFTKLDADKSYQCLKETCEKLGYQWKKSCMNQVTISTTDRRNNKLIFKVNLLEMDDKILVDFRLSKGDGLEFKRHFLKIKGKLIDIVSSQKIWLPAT
Test: Chk1 kinase assay: incorporation of γ-33P ATP into immobilized myelin basic protein
Format: biochemical
Settings: Table 11; Chk1 only; read-out: Chk1 IC50
In short: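 Radiometric filter-free format: Chk1 10 nM, 10 μM ATP; Chk2 20 nM, 30 μM ATP; γ-33P ATP tracer; immobilized MBP substrate; Hepes pH 7.6, 10 mM MgCl2, 1 mM DTT; 1 h RT; 1% DMSO. Scintillation counting of washed plates. IC50/Ki from curve fit.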

Structure (SMILES): Nc1ncc(-c2cccc(CO)c2)nc1-c1nc(C2CCCCN2)n[nH]1 (stereo not shown) [Example 698, {3-[5-amino-6-(3-piperidin-2-yl-1H-1,2,4-triazol-5-yl)pyrazin-2-yl]phenyl}methanol]
- IC50: ≥ 10 µM

Structure (SMILES): CCNc1ncc(-c2cccc(C(=O)NCc3ccccc3)c2)nc1C(=O)N[C@H]1CCN(CC)C1 [Example 699, 3-(ethylamino)-N-[(3S)-1-ethylpyrrolidin-3-yl]-6-(3-{[(phenylmethyl)amino]carbonyl}phenyl)pyrazine-2-carboxamide]
- IC50: ≥ 10 µM

Structure (SMILES): CCN1CC[C@H](NC(=O)c2nc(-c3cccc(C(=O)NCc4ccccc4)c3)cnc2N)C1 [Example 700, 3-amino-N-[(3S)-1-ethylpyrrolidin-3-yl]-6-(3-{[(phenylmethyl)amino]carbonyl}phenyl)pyrazine-2-carboxamide]
- IC50: 0.05 to 1 µM

Structure (SMILES): Cn1nc(-c2nc(-c3cccc(C(=O)NCc4ccccc4)c3)cnc2N)nc1C1CCCCN1 (stereo not shown) [Example 701, 3-[5-amino-6-(1-methyl-5-piperidin-2-yl-1H-1,2,4-triazol-3-yl)pyrazin-2-yl]-N-(phenylmethyl)benzamide]
- IC50: ≥ 10 µM

Structure (SMILES): Cc1nc(-c2nc(-c3cccc(C(=O)NCc4ccccc4)c3)cnc2N)nn1-c1ccccn1 [Example 702, 3-[5-amino-6-(5-methyl-1-pyridin-2-yl-1H-1,2,4-triazol-3-yl)pyrazin-2-yl]-N-(phenylmethyl)benzamide]
- IC50: 1 to 10 µM

Structure (SMILES): Nc1ncc(-c2cccc(CO)c2)nc1-c1nc(C2CNCCO2)n[nH]1 (stereo not shown) [Example 703, {3-[5-amino-6-(3-morpholin-2-yl-1H-1,2,4-triazol-5-yl)pyrazin-2-yl]phenyl}methanol]
- IC50: 0.05 to 1 µM

Structure (SMILES): Nc1ncc(-c2cccc(CN[C@H]3CCc4ccccc43)c2)nc1-c1nc([C@H]2CCCNC2)n[nH]1 [Example 704, 5-(3-{[(1S)-2,3-dihydro-1H-inden-1-ylamino]methyl}phenyl)-3-{3-[(3S)-piperidin-3-yl]-1H-1,2,4-triazol-5-yl}pyrazin-2-amine]
- IC50: < 0.05 µM

Structure (SMILES): Nc1ncc(-c2cccc(CN[C@H]3CCc4ccccc43)c2)nc1-c1nc([C@@H]2CCCNC2)n[nH]1 [Example 705, 5-(3-{[(1S)-2,3-dihydro-1H-inden-1-ylamino]methyl}phenyl)-3-{3-[(3R)-piperidin-3-yl]-1H-1,2,4-triazol-5-yl}pyrazin-2-amine]
- IC50: < 0.05 µM

Structure (SMILES): CCN1CC[C@H](NC(=O)c2nc(-c3cccc(C(=O)N[C@H]4CCc5ccccc54)c3)cnc2N)C1 [Example 706, 3-amino-6-(3-{[(1S)-2,3-dihydro-1H-inden-1-ylamino]carbonyl}phenyl)-N-[(3S)-1-ethylpyrrolidin-3-yl]pyrazine-2-carboxamide]
- IC50: 0.05 to 1 µM

Structure (SMILES): CCNc1ncc(-c2cccc(C(=O)N[C@H]3CCc4ccccc43)c2)nc1C(=O)N[C@H]1CCN(CC)C1 [Example 707, 6-(3-{[(1S)-2,3-dihydro-1H-inden-1-ylamino]carbonyl}phenyl)-3-(ethylamino)-N-[(3S)-1-ethylpyrrolidin-3-yl]pyrazine-2-carboxamide]
- IC50: ≥ 10 µM

Structure (SMILES): Nc1ncc(-c2cccc(C(=O)N[C@H]3c4ccccc4C[C@H]3O)c2)nc1C(=O)N[C@H]1CCNC1 [Example 708, 3-amino-6-[3-({[(1S,2R)-2-hydroxy-2,3-dihydro-1H-inden-1-yl]amino}carbonyl)phenyl]-N-[(3S)-pyrrolidin-3-yl]pyrazine-2-carboxamide]
- IC50: 0.05 to 1 µM

Structure (SMILES): CC(C)(C)OC(=O)N1CC[C@H](NC(=O)c2nc(-c3cccc(C(=O)N[C@H]4CCc5ccccc54)c3)cnc2N)C1 [Example 709, 1,1-dimethylethyl (3S)-3-({[3-amino-6-(3-{[(1S)-2,3-dihydro-1H-inden-1-ylamino]carbonyl}phenyl)pyrazin-2-yl]carbonyl}amino)pyrrolidine-1-carboxylate]
- IC50: ≥ 10 µM

Structure (SMILES): C[C@@H](NC(=O)c1cccc(-c2cnc(N)c(C(=O)N[C@H]3CCN(C(=O)OC(C)(C)C)C3)n2)c1)c1ccccc1 [Example 710, 1,1-dimethylethyl (3S)-3-[({3-amino-6-[3-({[(1R)-1-phenylethyl]amino}carbonyl)phenyl]pyrazin-2-yl}carbonyl)amino]pyrrolidine-1-carboxylate]
- IC50: ≥ 10 µM

Structure (SMILES): CC(C)(C)OC(=O)N1CC[C@H](NC(=O)c2nc(-c3cccc(C(=O)N4CCc5ccccc5C4)c3)cnc2N)C1 [Example 711, 1,1-dimethylethyl (3S)-3-[({3-amino-6-[3-(3,4-dihydroisoquinolin-2(1H)-ylcarbonyl)phenyl]pyrazin-2-yl}carbonyl)amino]pyrrolidine-1-carboxylate]
- IC50: ≥ 10 µM

Structure (SMILES): CC(C)(C)OC(=O)N1CC[C@H](NC(=O)c2nc(-c3cccc(C(=O)NCCc4ccccc4)c3)cnc2N)C1 [Example 712, 1,1-dimethylethyl (3S)-3-({[3-amino-6-(3-{[(2-phenylethyl)amino]carbonyl}phenyl)pyrazin-2-yl]carbonyl}amino)pyrrolidine-1-carboxylate]
- IC50: ≥ 10 µM

Structure (SMILES): C[C@H](NC(=O)c1cccc(-c2cnc(N)c(C(=O)N[C@H]3CCN(C(=O)OC(C)(C)C)C3)n2)c1)c1ccccc1 [Example 713, 1,1-dimethylethyl (3S)-3-[({3-amino-6-[3-({[(1S)-1-phenylethyl]amino}carbonyl)phenyl]pyrazin-2-yl}carbonyl)amino]pyrrolidine-1-carboxylate]
- IC50: 1 to 10 µM

Structure (SMILES): Nc1ncc(-c2cccc(C(=O)N3CCc4ccccc4C3)c2)nc1C(=O)N[C@H]1CCNC1 [Example 714, 3-amino-6-[3-(3,4-dihydroisoquinolin-2(1H)-ylcarbonyl)phenyl]-N-[(3S)-pyrrolidin-3-yl]pyrazine-2-carboxamide]
- IC50: 0.05 to 1 µM

Structure (SMILES): Nc1ncc(-c2cccc(C(=O)NCCc3ccccc3)c2)nc1C(=O)N[C@H]1CCNC1 [Example 715, 3-amino-6-(3-{[(2-phenylethyl)amino]carbonyl}phenyl)-N-[(3S)-pyrrolidin-3-yl]pyrazine-2-carboxamide]
- IC50: 0.05 to 1 µM

Structure (SMILES): C[C@H](NC(=O)c1cccc(-c2cnc(N)c(C(=O)N[C@H]3CCNC3)n2)c1)c1ccccc1 [Example 717, 3-amino-6-[3-({[(1S)-1-phenylethyl]amino}carbonyl)phenyl]-N-[(3S)-pyrrolidin-3-yl]pyrazine-2-carboxamide]
- IC50: 0.05 to 1 µM

Structure (SMILES): CCNNC(=N)c1nc(-c2cccc(C(=O)NC3CCc4ccccc43)c2)cnc1N (stereo not shown) [Example 718, 3-{5-amino-6-[(2-ethylhydrazino)(imino)methyl]pyrazin-2-yl}-N-(2,3-dihydro-1H-inden-1-yl)benzamide]
- IC50: 1 to 10 µM

Structure (SMILES): CNNC(=N)c1nc(-c2cccc(C(=O)N[C@H]3CCc4ccccc43)c2)cnc1N [Example 719, 3-{5-amino-6-[imino(2-methylhydrazino)methyl]pyrazin-2-yl}-N-[(1S)-2,3-dihydro-1H-inden-1-yl)benzamide]
- IC50: 1 to 10 µM

Structure (SMILES): Cn1nc(-c2nc(-c3cccc(C(=O)N[C@H]4CCc5ccccc54)c3)cnc2N)nc1C1CCCN(C(=O)OCc2ccccc2)C1 (stereo partly drawn) [Example 721, phenylmethyl 3-{3-[3-amino-6-(3-{[(1S)-2,3-dihydro-1H-inden-1-ylamino]carbonyl}phenyl)pyrazin-2-yl]-1-methyl-1H-1,2,4-triazol-5-yl}piperidine-1-carboxylate]
- IC50: ≥ 10 µM

Structure (SMILES): CCn1nc(-c2nc(-c3cccc(C(=O)N[C@H]4CCc5ccccc54)c3)cnc2N)nc1C1CCCN(C(=O)OCc2ccccc2)C1 (stereo partly drawn) [Example 722, phenylmethyl 3-{3-[3-amino-6-(3-{[(1S)-2,3-dihydro-1H-inden-1-ylamino]carbonyl}phenyl)pyrazin-2-yl]-1-ethyl-1H-1,2,4-triazol-5-yl}piperidine-1-carboxylate]
- IC50: ≥ 10 µM

Structure (SMILES): Nc1ncc(-c2cccc(CN[C@H]3CCc4ccccc43)c2)nc1-c1nc(-c2ccncc2)n[nH]1 [Example 723, 5-(3-{[(1S)-2,3-dihydro-1H-inden-1-ylamino]methyl}phenyl)-3-(3-pyridin-4-yl-1H-1,2,4-triazol-5-yl)pyrazin-2-amine]
- IC50: < 0.05 µM

Structure (SMILES): Nc1ncc(-c2cccc(CO)c2)nc1-c1nc([C@@H]2CCCNC2)n[nH]1 [Example 724, [3-(5-amino-6{3-[(3R)-piperidin-3-yl]-1H-1,2,4-triazol-5-yl}pyrazin-2-yl)phenyl]methanol]
- IC50: 0.05 to 1 µM

Structure (SMILES): Nc1ncc(-c2cccc(CO)c2)nc1-c1nc([C@H]2CCCNC2)n[nH]1 [Example 725, [3-(5-amino-6-{3[(3S)-piperidin-3-yl]-1H-1,2,4-triazol-5-yl}pyrazin-2-yl)phenyl]methanol]
- IC50: 0.05 to 1 µM

Structure (SMILES): Nc1ncc(-c2cccc(C(=O)N[C@@H]3c4ccccc4C[C@@H]3O)c2)nc1C(=O)N[C@H]1CCNC1 [Example 726, 3-amino-6-[3-({[(1R,2S)-2-hydroxy-2,3-dihydro-1H-inden-1-yl]amino}carbonyl)phenyl]-N-[(3S)-pyrrolidin-3-yl]pyrazine-2-carboxamide]
- IC50: < 0.05 µM

Structure (SMILES): CCN1CC[C@H](NC(=O)c2nc(-c3cccc(C(=O)N[C@H]4c5ccccc5C[C@H]4O)c3)cnc2N)C1 [Example 727, 3-amino-N-[(3S)-1-ethylpyrrolidin-3-yl]-6-[3-({[(1S,2R)-2-hydroxy-2,3-dihydro-1H-inden-1-yl]amino}carbonyl)phenyl]pyrazine-2-carboxamide]
- IC50: 1 to 10 µM
